Reference: publication PMC7995829 (ACS chemical biology, 2020)
Read-outs that look alike come from different tables or passages of the source.

Tests used:
BglX [1] = biological target: T1, BglX (Pseudomonas aeruginosa, UniProt Q9I311); assay: inhibition assay; format: biochemical; conditions: nonsubstrate, weak inhibitor
BglX [2] = biological target: T1, BglX; assay: inhibition assay; format: biochemical

Row | SMILES | Ki (BglX [1]) [mM] | Ki (BglX [2]) [mM]
1 | OC[C@H]1O[C@@H](O[C@H]2[C@H](O)[C@@H](O)C(O)O[C@@H]2CO)[C@H](O)[C@@H](O)[C@@H]1O (stereo partly shown) [cellobiose] | > 50 | –
2 | OC1OC[C@@H](O[C@@H]2OC[C@@H](O[C@@H]3OC[C@@H](O)[C@H](O)[C@H]3O)[C@H](O)[C@H]2O)[C@H](O)[C@H]1O (stereo partly shown) [xylotriose] | > 50 | –
3 | OC[C@H]1O[C@@H](O[C@H]2[C@H](O)[C@@H](O)C(O)O[C@@H]2CO)[C@H](O)[C@@H](O)[C@H]1O (stereo partly shown) [lactose] | > 50 | –
4 | OC[C@H]1NC[C@H](O)[C@@H](O)[C@@H]1O [NOJ, 1-deoxynojirimycin] | – | 4.4 ± 0.5
